Data taken from patent US5968910A, “Compositions containing two or three inhibitors of different HIV reverse transcriptases” (priority 1994, dated 1999).
pIC50: −log10 of the molar value. Converted amounts (≈) assume the structure as drawn. Like-named read-outs stand apart in the source and are kept apart here.

Key:
HIV-1(IIIB) (WT) = assay: microbe, parasite or virus in culture; format: cell-based; conditions: Human immunodeficiency virus 1, IIIB, CCRF-CEM
Procedure, shortened: (§1)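 Syncytium formation read out after 4 days at 37° C. Cultures: CEM cells, 250,000/ml, infected at 100 50% cell culture infective doses/ml and added to compound dilutions.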

HIV-1/I(0.1) 103-Asn = assay: Sensitivity of mutant HIV-1 strain in CEM cell cultures; format: cell-based; conditions: Human immunodeficiency virus 1, CCRF-CEM; Table 5; read-out: EC50
Procedure, shortened: as §1

HIV-1/II(0.1) 100-Ile = assay: as above; format: cell-based; conditions: Human immunodeficiency virus 1, CCRF-CEM; Table 5; read-out: EC50
Procedure, shortened: as §1

HIV-1/III(0.1) 103-Asn = assay: as above; format: cell-based; conditions: Human immunodeficiency virus 1, CCRF-CEM; Table 5; read-out: EC50
Procedure, shortened: as §1

HIV-1/Nev (106-Ala) = assay: as above; format: cell-based; conditions: Human immunodeficiency virus 1, CCRF-CEM; CEM cells, Table 1; read-out: 50% Effective Concentration
Procedure, shortened: as §1

HIV-1/Pyr (181-Cys) = assay: as above; format: cell-based; conditions: Human immunodeficiency virus 1, CCRF-CEM; CEM cells, Table 1; read-out: 50% Effective Concentration
Procedure, shortened: as §1

[1] = test system: HIV-1/TIBO R82150 (100-Ile); assay: as above; format: cell-based; conditions: Human immunodeficiency virus 1, CCRF-CEM; CEM cells, Table 1; read-out: 50% Effective Concentration
Procedure, shortened: as §1

[2] = test system: HIV-1/TIBO R82913 (103-Asn); assay: as above; format: cell-based; conditions: Human immunodeficiency virus 1, CCRF-CEM; CEM cells, Table 1; read-out: 50% Effective Concentration
Procedure, shortened: as §1

[3] = test system: HIV-1/TSAO-m^3 T (138-Lys); assay: as above; format: cell-based; conditions: Human immunodeficiency virus 1, CCRF-CEM; CEM cells, Table 1; read-out: 50% Effective Concentration
Procedure, shortened: as §1

[4] = test system: HIV-1/V(0.1) 101-Ile + 141-Glu; assay: as above; format: cell-based; conditions: Human immunodeficiency virus 1, CCRF-CEM; Table 5; read-out: EC50
Procedure, shortened: as §1

HIV-1/V(0.5) 103-Asn = assay: as above; format: cell-based; conditions: Human immunodeficiency virus 1, CCRF-CEM; Table 5; read-out: EC50
Procedure, shortened: as §1

HIV-1 RT (WT) = HIV-1 RT (WT) (Human immunodeficiency virus type 1 group M subtype B, UniProt P03366); assay: biochemical
Method: The reaction mixture (50 μl) contained 50 mM Tris.HCl, pH 7.8, 5 mM dithiothreitol, […] glutathione, 500 μM EDTA, 150 mM KCl, 5 mM MgCl2, 1.25 μg of bovine serum albumin, a fixed concentration of the labeled substrate [2,8-^3 H]dGTP (2.95 μM, 2 μCi), a fixed concentration of the template/primer poly(C).oligo(dG) (0.1 mM), 0.06% Triton X-100, 5 μl of inhibitor solution [containing various concentrations (5-fold dilutions) of the test compounds], and 5 μl of the RT preparation. The reaction mixtures were incubated at 37° C. for 30 min, at which time 100 μl of calf thymus DNA (150 μg/ml), 2 ml of Na4 P2 07 (0.1 M in 1M HCl), and 2 ml of trichloroacetic acid (10%, v/v) were added. The solutions were kept on ice for 30 min, after which the acid-insoluble material was washed and analyzed for radioactivity.
Compounds I, III, IV and V were evaluated for their inhibitory effect on recombinant HIV-1 RT.

HIV-1(IIIB) = assay: Knock-out concentrations: breakthrough of HIV-1(IIIB)-induced cytopathicity in CEM cell cultures; format: cell-based; conditions: for activity at 0.1 µg/mL / activity at 0.5 µg/mL / activity at 2.5 µg/mL: Human immunodeficiency virus 1, IIIB, CCRF-CEM, read-out: HIV-1-induced cytopathicity in cell culture; for activity at 0.1 µg/mL: 0.1 μg/ml; for activity at 0.5 µg/mL: 0.5 μg/ml; for activity at 2.5 µg/mL: 2.5 μg/ml
Method: The culture medium consisted of RPMI 1640 containing 10% fetal bovine serum, 2 mM L-glutamine, and 0.075% NaHCO3. The multiplicity of the initial infection was ~1000 times the CCID50 (50% cell culture infective dose). Passages were performed every 3 to 4 days by adding 0.5 to 1.0 ml of the infected culture supernatant to 5 ml of a suspension containing 4×10^5 uninfected CEM cells per ml. Syncytium formation was used as a parameter of virus breakthrough in the cell cultures. In the drug combination experiments, the compounds were combined at the same initial concentrations as used for the two lowest concentrations in the single-drug experiments.
The drug concentrations were kept constant throughout the whole time period of the experiment (10 subcultivations or 35 days). Then the drugs were removed from the cell cultures, and the cells were further subcultured for at least 5 additional passages.

[5] = 936 h, day 39 post infection, compound absent from day 35
[6] = 1008 h, day 42 post infection, compound absent from day 35
[7] = 1104 h, day 46 post infection, compound absent from day 35
[8] = 1176 h, day 49 post infection, compound absent from day 35
[9] = 1272 h, day 53 post infection, compound absent from day 35

O=C(OC1CCCCC1)c1cc(NC(=S)c2ccsc2)ccc1Cl [Compound V]
EC50 (HIV-1(IIIB) (WT); CEM cells, Table 1, read-out: 50% Effective Concentration): 0.03 µg/mL (≈ 0.079 µM)
EC50 (HIV-1(IIIB) (WT); HIV-1 (III8), Table 5, read-out: EC50): 0.03 µg/mL (≈ 0.079 µM)
IC50 (HIV-1(IIIB) (WT); range stated for Compounds I-V together, read-out: 50% inhibitory concentration, HIV-1(IIIB) replication in CEM cells): 0.004 to 0.05 µg/mL (≈ 0.0105 to 0.132 µM)
EC50 (HIV-1/I(0.1) 103-Asn): 1.75 µg/mL (≈ 4.61 µM)
EC50 (HIV-1/II(0.1) 100-Ile): ≥ 5 µg/mL
EC50 (HIV-1/III(0.1) 103-Asn): 0.35 µg/mL (≈ 0.921 µM)
EC50 (HIV-1/Nev (106-Ala)): 0.073 µg/mL (≈ 0.192 µM)
EC50 (HIV-1/Pyr (181-Cys)): 0.077 µg/mL (≈ 0.203 µM)
EC50 [1]: 0.85 µg/mL (≈ 2.24 µM)
EC50 [2]: > 1 µg/mL
EC50 [3]: 0.075 µg/mL (≈ 0.197 µM)
EC50 [4]: 0.3 µg/mL (≈ 0.79 µM)
EC50 (HIV-1/V(0.5) 103-Asn): ≥ 5 µg/mL
pIC50 (HIV-1 RT (WT); range stated for the compounds together, poly(C).oligo(dG), 2.95 μM [2,8-3H]dGTP, read-out: IC50 on recombinant HIV-1 RT): 6.69 to 7.32
IC50 (HIV-1 RT (WT); substrate [2,8-3H]dGTP 2.95 μM, template poly(rC)oligo(dG), read-out: IC50, anti-HIV-1 RT (WT) activity (converted)): 203 nM
prevention of virus breakthrough, fold more efficient than BHAP (HIV-1(IIIB)): at least 5 fold
prevention of virus breakthrough, fold more efficient than nevirapine (HIV-1(IIIB)): ≥ 25 fold
activity at 0.1 µg/mL (HIV-1(IIIB); 96 h, day 4 post infection): 0%
activity at 0.5 µg/mL (HIV-1(IIIB); 96 h, day 4 post infection): 0%
activity at 2.5 µg/mL (HIV-1(IIIB); 96 h, day 4 post infection): 0%
activity at 0.1 µg/mL (HIV-1(IIIB); 192 h, day 8 post infection): 37.5%
activity at 0.5 µg/mL (HIV-1(IIIB); 192 h, day 8 post infection): 0%
activity at 2.5 µg/mL (HIV-1(IIIB); 192 h, day 8 post infection): 0%
activity at 0.1 µg/mL (HIV-1(IIIB); 264 h, day 11 post infection): 50%
activity at 0.5 µg/mL (HIV-1(IIIB); 264 h, day 11 post infection): 0%
activity at 2.5 µg/mL (HIV-1(IIIB); 264 h, day 11 post infection): 0%
activity at 0.1 µg/mL (HIV-1(IIIB); 336 h, day 14 post infection): 100%
activity at 0.5 µg/mL (HIV-1(IIIB); 336 h, day 14 post infection): 18.5%
activity at 2.5 µg/mL (HIV-1(IIIB); 336 h, day 14 post infection): 0%
activity at 0.1 µg/mL (HIV-1(IIIB); 408 h, day 17 post infection): 100%
activity at 0.5 µg/mL (HIV-1(IIIB); 408 h, day 17 post infection): 75%
activity at 2.5 µg/mL (HIV-1(IIIB); 408 h, day 17 post infection): 0%
activity at 0.1 µg/mL (HIV-1(IIIB); 504 h, day 21 post infection): 100%
activity at 0.5 µg/mL (HIV-1(IIIB); 504 h, day 21 post infection): 100%
activity at 2.5 µg/mL (HIV-1(IIIB); 504 h, day 21 post infection): 0%
activity at 0.1 µg/mL (HIV-1(IIIB); 600 h, day 25 post infection): 100%
activity at 0.5 µg/mL (HIV-1(IIIB); 600 h, day 25 post infection): 100%
activity at 2.5 µg/mL (HIV-1(IIIB); 600 h, day 25 post infection): 0%
activity at 0.1 µg/mL (HIV-1(IIIB); 672 h, day 28 post infection): 100%
activity at 0.5 µg/mL (HIV-1(IIIB); 672 h, day 28 post infection): 100%
activity at 2.5 µg/mL (HIV-1(IIIB); 672 h, day 28 post infection): 0%
activity at 0.1 µg/mL (HIV-1(IIIB); 768 h, day 32 post infection): 100%
activity at 0.5 µg/mL (HIV-1(IIIB); 768 h, day 32 post infection): 100%
activity at 2.5 µg/mL (HIV-1(IIIB); 768 h, day 32 post infection): 0%
activity at 0.1 µg/mL (HIV-1(IIIB); 840 h, day 35 post infection): 100%
activity at 0.5 µg/mL (HIV-1(IIIB); 840 h, day 35 post infection): 100%
activity at 2.5 µg/mL (HIV-1(IIIB); 840 h, day 35 post infection): 0%
activity at 0.1 µg/mL (HIV-1(IIIB); [5]): 100%
activity at 0.5 µg/mL (HIV-1(IIIB); [5]): 100%
activity at 2.5 µg/mL (HIV-1(IIIB); [5]): 0%
activity at 0.1 µg/mL (HIV-1(IIIB); [6]): 100%
activity at 0.5 µg/mL (HIV-1(IIIB); [6]): 100%
activity at 2.5 µg/mL (HIV-1(IIIB); [6]): 0%
activity at 0.1 µg/mL (HIV-1(IIIB); [7]): 100%
activity at 0.5 µg/mL (HIV-1(IIIB); [7]): 100%
activity at 2.5 µg/mL (HIV-1(IIIB); [7]): 0%
activity at 0.1 µg/mL (HIV-1(IIIB); [8]): 100%
activity at 0.5 µg/mL (HIV-1(IIIB); [8]): 100%
activity at 2.5 µg/mL (HIV-1(IIIB); [8]): 0%
activity at 0.1 µg/mL (HIV-1(IIIB); [9]): 100%
activity at 0.5 µg/mL (HIV-1(IIIB); [9]): 100%
activity at 2.5 µg/mL (HIV-1(IIIB); [9]): 0%
concentration at which virus emerged (virus breakthrough) (HIV-1(IIIB); tested at 0.1, 0.5 and 2.5 μg/ml, 35 days): 0.5 µg/mL
